Data as given in US10112937B2, “P2X7 modulators and methods of use” (Janssen Pharmaceutica NV, priority 2013, dated 2018).

Target: human P2X7 (Homo sapiens (Human), UniProt Q99572)
Test: P2X7 antagonism in human PBMCs (IL-1β release after LPS + Bz-ATP, ELISA)
Format: cell-based
Settings: human PBMCs, test compound 10 μM

Sequence of human P2X7 (Q99572 whole entry): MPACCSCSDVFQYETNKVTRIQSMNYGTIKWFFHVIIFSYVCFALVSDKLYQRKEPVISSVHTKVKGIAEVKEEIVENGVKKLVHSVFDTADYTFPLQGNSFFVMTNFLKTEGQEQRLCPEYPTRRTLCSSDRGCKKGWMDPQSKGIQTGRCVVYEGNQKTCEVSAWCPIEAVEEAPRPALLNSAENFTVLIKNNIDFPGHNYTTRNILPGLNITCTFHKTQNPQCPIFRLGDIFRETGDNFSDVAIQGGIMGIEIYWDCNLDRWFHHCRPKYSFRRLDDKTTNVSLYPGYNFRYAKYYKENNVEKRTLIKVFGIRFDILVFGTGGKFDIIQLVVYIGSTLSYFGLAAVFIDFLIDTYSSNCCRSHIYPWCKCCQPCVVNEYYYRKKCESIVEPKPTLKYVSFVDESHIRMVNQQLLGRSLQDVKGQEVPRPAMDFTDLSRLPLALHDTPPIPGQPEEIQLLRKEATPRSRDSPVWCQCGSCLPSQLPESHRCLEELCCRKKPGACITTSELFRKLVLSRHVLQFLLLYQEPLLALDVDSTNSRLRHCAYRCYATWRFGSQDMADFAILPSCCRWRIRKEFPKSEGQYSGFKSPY

SMILES	PBMC 10 μM (% control)
CC1c2nnn(-c3ncc(F)cn3)c2CCN1C(=O)c1cccc(C(F)(F)F)c1F (stereo not drawn) [Example 175, (2-fluoro-3-(trifluoromethyl)phenyl)(1-(5-fluoropyrimidin-2-yl)-4-methyl-6,7-dihydro-1H-[1,2,3]triazolo[4,5-c]pyridin-5(4H)-yl)methanone]	4.5
CC1Cc2c(nnn2-c2cc(F)ccn2)CN1C(=O)c1cccc(C(F)(F)F)c1Cl (stereo not drawn) [Example 176, (2-Chloro-3-(trifluoromethyl)phenyl)(1-(4-fluoropyridin-2-yl)-6-methyl-6,7-dihydro-1H-[1,2,3]triazolo[4,5-c]pyridin-5(4H)-yl)methanone]	7.3
CC1c2nnn(-c3cncnc3)c2CCN1C(=O)c1cccc(C(F)(F)F)c1Cl (stereo not drawn) [Example 177, (2-Chloro-3-(trifluoromethyl)phenyl)(4-methyl-1-(pyrimidin-5-yl)-6,7-dihydro-1H-[1,2,3]triazolo[4,5-c]pyridin-5(4H)-yl)methanone]	8.6
Cc1cc(C)nc(-n2nnc3c2CCN(C(=O)c2cccc(Cl)c2Cl)C3C)n1 (stereo not drawn) [Example 179, (2,3-dichlorophenyl)(1-(4,6-dimethylpyrimidin-2-yl)-4-methyl-6,7-dihydro-1H-[1,2,3]triazolo[4,5-c]pyridin-5(4H)-yl)methanone]	−4.3
Cc1cncc(-n2nnc3c2CCN(C(=O)c2cccc(Cl)c2Cl)C3C)n1 (stereo not drawn) [Example 180, (2,3-dichlorophenyl)(4-methyl-1-(6-methylpyrazin-2-yl)-6,7-dihydro-1H-[1,2,3]triazolo[4,5-c]pyridin-5(4H)-yl)methanone]	−3.7
CCc1nc2c(n1-c1ccccc1)CCN(C(=O)c1cccc(C(F)(F)F)c1Cl)C2C (stereo not drawn) [Example 184, (2-Chloro-3-(trifluoromethyl)phenyl)(2-ethyl-4-methyl-1-phenyl-6,7-dihydro-1H-imidazo[4,5-c]pyridin-5(4H)-yl)methanone]	−0.7
CC1Cc2c(nnn2-c2ccn[nH]2)CN1C(=O)c1cccc(C(F)(F)F)c1F (stereo not drawn) [Example 189, (2-fluoro-3-(trifluoromethyl)phenyl)(6-methyl-1-(1H-pyrazol-3-yl)-6,7-dihydro-1H-[1,2,3]triazolo[4,5-c]pyridin-5(4H)-yl)methanone]	0.5
CC1Cc2c(nnn2-c2ncc(F)cn2)CN1C(=O)c1cccc(C(F)(F)F)c1Cl (stereo not drawn) [Example 200, 5-{[2-Chloro-3-(trifluoromethyl)phenyl]carbonyl}-1-(5-fluoropyrimidin-2-yl)-6-methyl-4,5,6,7-tetrahydro-1H-[1,2,3]triazolo[4,5-c]pyridine]	3.2
CC1Cc2c(nnn2-c2ncc(F)cn2)CN1C(=O)c1cccc(Cl)c1Cl (stereo not drawn) [Example 203, 5-[(2,3-Dichlorophenyl)carbonyl]-1-(5-fluoropyrimidin-2-yl)-6-methyl-4,5,6,7-tetrahydro-1H-[1,2,3]triazolo[4,5-c]pyridine]	0.6
Cc1c(C(=O)N2Cc3nnn(-c4ncc(F)cn4)c3CC2C)cccc1C(F)(F)F (stereo not drawn) [Example 206, 1-(5-Fluoropyrimidin-2-yl)-6-methyl-5-{[2-methyl-3-(trifluoromethyl)phenyl]carbonyl}-4,5,6,7-tetrahydro-1H-[1,2,3]triazolo[4,5-c]pyridine]	−1.0
CC1Cc2c(nnn2-c2cnccn2)CN1C(=O)c1cccc(C(F)(F)F)c1Cl (stereo not drawn) [Example 209, 5-{[2-Chloro-3-(trifluoromethyl)phenyl]carbonyl}-6-methyl-1-pyrazin-2-yl-4,5,6,7-tetrahydro-1H-[1,2,3]triazolo[4,5-c]pyridine]	−1.0
CC1Cc2c(nnn2-c2cc[nH]n2)CN1C(=O)c1cccc(C(F)(F)F)c1Cl (stereo not drawn) [Example 210, (2-chloro-3-(trifluoromethyl)phenyl)(6-methyl-1-(1H-pyrazol-3-yl)-6,7-dihydro-1H-[1,2,3]triazolo[4,5-c]pyridin-5(4H)-yl)methanone]	0.8
CC1Cc2c(nnn2-c2ncc(F)cn2)CN1C(=O)c1ccc(F)c(Cl)c1Cl (stereo not drawn) [Example 213, 5-[(2,3-Dichloro-4-fluorophenyl)carbonyl]-1-(5-fluoropyrimidin-2-yl)-6-methyl-4,5,6,7-tetrahydro-1H-[1,2,3]triazolo[4,5-c]pyridine]	0.3
CC1Cc2c(nnn2-c2ncc(F)cn2)CN1C(=O)c1ccc(Cl)c(F)c1Cl (stereo not drawn) [Example 216, 5-[(2,4-Dichloro-3-fluorophenyl)carbonyl]-1-(5-fluoropyrimidin-2-yl)-6-methyl-4,5,6,7-tetrahydro-1H-[1,2,3]triazolo[4,5-c]pyridine]	0.6
Cc1ccnc(-n2nnc3c2CCN(C(=O)c2cccc(Cl)c2Cl)C3C)n1 (stereo not drawn) [Example 225, (2,3-dichlorophenyl)(4-methyl-1-(4-methylpyrimidin-2-yl)-6,7-dihydro-1H-[1,2,3]triazolo[4,5-c]pyridin-5(4H)-yl)methanone]	−1.0
C[C@H]1Cc2c(nnn2-c2ncc(F)cn2)CN1C(=O)c1ccnc(C(F)(F)F)c1F [Example 228, (S)-(3-fluoro-2-(trifluoromethyl)pyridin-4-yl)(1-(5-fluoropyrimidin-2-yl)-6-methyl-6,7-dihydro-1H-[1,2,3]triazolo[4,5-c]pyridin-5(4H)-yl)methanone]	−1.1
Cc1nc(-n2nnc3c2CCN(C(=O)c2cccc(C(F)(F)F)c2Cl)C3C)ncc1F (stereo not drawn) [Example 230, (2-chloro-3-(trifluoromethyl)phenyl)(1-(5-fluoro-4-methylpyrimidin-2-yl)-4-methyl-6,7-dihydro-1H-[1,2,3]triazolo[4,5-c]pyridin-5(4H)-yl)methanone]	2.9
Cc1cc(C)nc(-n2nnc3c2CCN(C(=O)c2cccc(Cl)c2Cl)C3C)c1 (stereo not drawn) [Example 231, (2,3-dichlorophenyl)(1-(4,6-dimethylpyridin-2-yl)-4-methyl-6,7-dihydro-1H-[1,2,3]triazolo[4,5-c]pyridin-5(4H)-yl)methanone]	−4.8
Cc1cccc(-n2nnc3c2CCN(C(=O)c2cccc(Cl)c2Cl)C3C)n1 (stereo not drawn) [Example 233, (2,3-dichlorophenyl)(4-methyl-1-(6-methylpyridin-2-yl)-6,7-dihydro-1H-[1,2,3]triazolo[4,5-c]pyridin-5(4H)-yl)methanone]	−0.1
CC1c2nnn(-c3cncnc3)c2C=CN1C(=O)c1cccc(C(F)(F)F)c1Cl (stereo not drawn) [Example 236, (2-Chloro-3-(trifluoromethyl)phenyl)(4-methyl-1-(pyrimidin-5-yl)-1H-[1,2,3]triazolo[4,5-c]pyridin-5(4H)-yl)methanone]	9.3
Cc1ccnc(-n2nnc3c2CCN(C(=O)c2cccc(Cl)c2Cl)C3C)c1 (stereo not drawn) [Example 237, (2,3-dichlorophenyl)(4-methyl-1-(4-methylpyridin-2-yl)-6,7-dihydro-1H-[1,2,3]triazolo[4,5-c]pyridin-5(4H)-yl)methanone]	−5.1
CC1CN(C(=O)c2cccc(C(F)(F)F)c2Cl)C(C)c2nnn(-c3ccc(F)cc3)c21 (stereo not drawn) [Example 238, (2-Chloro-3-(trifluoromethyl)phenyl)(1-(4-fluorophenyl)-4,7-dimethyl-6,7-dihydro-1H-[1,2,3]triazolo[4,5-c]pyridin-5(4H)-yl)methanone]	−4.1
CC1Cc2c(nnn2-c2ccccc2)C(C)N1C(=O)c1cccc(C(F)(F)F)c1Cl (stereo not drawn) [Example 240, (2-Chloro-3-(trifluoromethyl)phenyl)(4,6-dimethyl-1-phenyl-6,7-dihydro-1H-[1,2,3]triazolo[4,5-c]pyridin-5(4H)-yl)methanone]	−8.9
CC1CN(C(=O)c2cccc(C(F)(F)F)c2Cl)C(C)c2nnn(-c3ccccc3)c21 (stereo not drawn) [Example 241, (2-Chloro-3-(trifluoromethyl)phenyl)(4,7-dimethyl-1-phenyl-6,7-dihydro-1H-[1,2,3]triazolo[4,5-c]pyridin-5(4H)-yl)methanone]	6.5
CC1Cc2c(nnn2-c2ccc(F)cc2)C(C)N1C(=O)c1cccc(Cl)c1Cl (stereo not drawn) [Example 242, (2,3-Dichlorophenyl)(1-(4-fluorophenyl)-4,6-dimethyl-6,7-dihydro-1H-[1,2,3]triazolo[4,5-c]pyridin-5(4H)-yl)methanone]	−3.4
CC1Cc2c(nnn2-c2ccc(F)cc2)C(C)N1C(=O)c1cccc(C(F)(F)F)c1Cl (stereo not drawn) [Example 243, (2-Chloro-3-(trifluoromethyl)phenyl)(1-(4-fluorophenyl)-4,6-dimethyl-6,7-dihydro-1H-[1,2,3]triazolo[4,5-c]pyridin-5(4H)-yl)methanone]	1.0
CC1CN(C(=O)c2cccc(Cl)c2Cl)Cc2nnn(-c3ccccc3)c21 (stereo not drawn) [Example 244, (2,3-Dichlorophenyl)(7-methyl-1-phenyl-6,7-dihydro-1H-[1,2,3]triazolo[4,5-c]pyridin-5(4H)-yl)methanone]	−2.3
CC1CN(C(=O)c2cccc(C(F)(F)F)c2Cl)Cc2nnn(-c3ccccc3)c21 (stereo not drawn) [Example 245, (2-Chloro-3-(trifluoromethyl)phenyl)(7-methyl-1-phenyl-6,7-dihydro-1H-[1,2,3]triazolo[4,5-c]pyridin-5(4H)-yl)methanone]	−7.3
CC1CN(C(=O)c2cccc(C(F)(F)F)c2Cl)Cc2nnn(-c3ccc(F)cc3)c21 (stereo not drawn) [Example 246, (2-Chloro-3-(trifluoromethyl)phenyl)(1-(4-fluorophenyl)-7-methyl-6,7-dihydro-1H-[1,2,3]triazolo[4,5-c]pyridin-5(4H)-yl)methanone]	−3.1
CC1CN(C(=O)c2cccc(Cl)c2Cl)Cc2nnn(-c3ccc(F)cc3)c21 (stereo not drawn) [Example 247, (2,3-Dichlorophenyl)(1-(4-fluorophenyl)-7-methyl-6,7-dihydro-1H-[1,2,3]triazolo[4,5-c]pyridin-5(4H)-yl)methanone]	−0.8
